Molecular target: T1, ΔF508 expressing CFBE410- lung cells (Homo sapiens, UniProt P13569, DEL508-508)
T1 construct: host or cells: CFBE41o- lung cells
Assay: CFTR folding and trafficking assay (immunoblot of band B and C glycoforms)
Type: cell-based
Conditions: CFBE410- lung cells cultured in presence of compound versus DMSO; FIG. 1
Experimental: CFTR transport assays. Either ΔF508 expressing CFBE410- lung cells were cultured in the presence or absence of reagent in 12 well Sarstedt dishes, harvested, lysed and the processing of CFTR from the band B to the band C glycoform detected by SDS-PAGE and immunoblotting using either monoclonal 3G11 or M3A7.
Quantitation of CFTR glycoforms: Immunoblot exposures were selected to allow visualization of CFTR recovery under identical protein loads in same SDS-PAGE for all treatments. Given the dynamic range, quantitation of the band B and C glycoforms was made by analysis of band intensities that were in the linear range. The x-ray films were exposed for increasing time and the different exposures were quantified using a FluroChemSP (Alpha Inotech) densitometer/software package. Where band B and C were quantified from different exposures, an internal reference was used to normalize the signal intensity. This method is described in more detail in Hutt et al. (2010).^16 Reduced histone deacetylase 7 activity restores function to misfolded CFTR in cystic fibrosis, Nature Chemical Biology (2010), 6(1), 25-33, the contents of which are expressly incorporated by reference herein.

T1 sequence (P13569 with tags, fused parts or gaps DEL508-508): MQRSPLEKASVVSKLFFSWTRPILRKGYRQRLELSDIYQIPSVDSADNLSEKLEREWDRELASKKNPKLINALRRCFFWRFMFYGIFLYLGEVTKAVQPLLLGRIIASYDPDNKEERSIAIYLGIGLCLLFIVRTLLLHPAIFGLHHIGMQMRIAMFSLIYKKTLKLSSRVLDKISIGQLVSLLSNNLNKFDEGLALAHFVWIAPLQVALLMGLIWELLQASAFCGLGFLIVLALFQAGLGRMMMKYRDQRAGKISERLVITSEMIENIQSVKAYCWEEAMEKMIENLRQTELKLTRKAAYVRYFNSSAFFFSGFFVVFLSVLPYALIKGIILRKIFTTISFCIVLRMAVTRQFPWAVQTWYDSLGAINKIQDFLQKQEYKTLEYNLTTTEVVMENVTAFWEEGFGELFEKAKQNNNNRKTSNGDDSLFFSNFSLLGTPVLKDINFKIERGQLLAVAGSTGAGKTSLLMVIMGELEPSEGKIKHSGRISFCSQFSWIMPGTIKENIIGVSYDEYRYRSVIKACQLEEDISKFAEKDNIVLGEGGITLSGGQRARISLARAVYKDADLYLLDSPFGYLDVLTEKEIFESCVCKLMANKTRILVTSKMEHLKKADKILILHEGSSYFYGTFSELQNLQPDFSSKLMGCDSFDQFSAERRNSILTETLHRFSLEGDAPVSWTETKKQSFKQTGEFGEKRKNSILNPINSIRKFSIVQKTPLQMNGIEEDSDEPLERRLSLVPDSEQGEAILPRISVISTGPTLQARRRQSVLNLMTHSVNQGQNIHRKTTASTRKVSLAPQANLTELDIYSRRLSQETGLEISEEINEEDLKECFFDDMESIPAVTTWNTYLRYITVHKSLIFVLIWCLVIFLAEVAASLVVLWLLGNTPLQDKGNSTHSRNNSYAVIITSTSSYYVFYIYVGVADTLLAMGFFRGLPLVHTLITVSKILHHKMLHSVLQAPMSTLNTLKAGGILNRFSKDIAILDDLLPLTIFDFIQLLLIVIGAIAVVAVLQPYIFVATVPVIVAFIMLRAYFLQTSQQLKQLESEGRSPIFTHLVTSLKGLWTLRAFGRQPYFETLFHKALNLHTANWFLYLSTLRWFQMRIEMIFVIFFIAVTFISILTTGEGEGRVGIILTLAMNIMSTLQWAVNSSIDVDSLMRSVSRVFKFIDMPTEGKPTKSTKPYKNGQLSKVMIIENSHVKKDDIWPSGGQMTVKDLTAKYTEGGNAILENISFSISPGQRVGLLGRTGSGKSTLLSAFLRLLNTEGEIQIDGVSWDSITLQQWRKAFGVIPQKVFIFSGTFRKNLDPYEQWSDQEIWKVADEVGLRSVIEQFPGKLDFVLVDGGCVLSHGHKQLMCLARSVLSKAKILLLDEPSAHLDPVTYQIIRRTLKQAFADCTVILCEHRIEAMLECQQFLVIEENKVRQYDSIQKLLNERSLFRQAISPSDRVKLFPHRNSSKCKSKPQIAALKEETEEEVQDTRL

- levels of CFTR band B and C by immunoblot: enhanced levels of band B and C
Structure (SMILES): CCN1CCc2c(sc(NC(C)=O)c2-c2nc3ccccc3s2)C1 [Example 2, N-(3-(benzo[d]thiazol-2-yl)-6-ethyl-4,5,6,7-tetrahydrothieno[2,3-c]pyridin-2-yl)acetamide]

Reference: patent US20130072473A1, “COMPOUNDS FOR TREATING PROTEIN FOLDING DISORDERS” (PROTEOSTASIS THERAPEUTICS, INC., priority 2011, published 2013)
